The results in this text go back to patent publication US9006437B2, “Xanthene dyes comprising a sulfonamide group” (Biotium, Inc., priority 2009, dated 2015).

A short description of the series: Absorption/emission maxima of dyes in pH 7.4 PBS. Format: physicochemical.

Each structure is given as a SMILES string.

`N=c1ccc2c(-c3ccccc3C(=O)O)c3ccc(N)c(S(=O)(=O)NCCCCCC(=O)ON4C(=O)CCC4=O)c3oc-2c1` [compound 1]: the “λabs (nm) (in pH 7.4 PBS)” value was 488 nm and the “λem (nm) (in pH 7.4 PBS)” value turned out to be 516 nm. The corresponding values for `N=c1ccc2c(-c3ccccc3C(=O)O)c3ccc(N)c(S(=O)(=O)NCCOCCOCCOCCOCCOCCOCCOCCN)c3oc-2c1S(=O)(=O)O` [compound 3] are 488 nm and 516 nm.

Take `COCCOCCNC(=O)c1ccc(-c2c3ccc(=N)c(S(=O)(=O)O)c-3oc3c(S(=O)(=O)NCCOCCOCCOCCOCCC(=O)ON4C(=O)CCC4=O)c(N)ccc23)c(C(=O)O)c1` [compound 5]: the “λabs (nm) (in pH 7.4 PBS)” value turned out to be 488 nm and the “λem (nm) (in pH 7.4 PBS)” value is recorded as 516 nm. As for `N=c1ccc2c(-c3ccccc3C(=O)O)c3ccc(N)cc3oc-2c1S(=O)(=O)NCCCCCC(=O)ON1C(=O)CCC1=O` [Compound No. 9], the “λabs (nm) (in pH 7.4 PBS)” value is reported as 529/ nm.

Regarding `N=c1ccc2c(-c3ccccc3C(=O)O)c3ccc(N)c(S(=O)(=O)NCCOCCOCCOCCOCCOCCOCCOCCOCCC(=O)ON4C(=O)CCC4=O)c3oc-2c1S(=O)(=O)O` [compound 4], the “λabs (nm) (in pH 7.4 PBS)” value worked out at 488 nm and the “λem (nm) (in pH 7.4 PBS)” value is 516 nm.
